The target of assay [1] is T1, purified human recombinant GK (Homo sapiens, UniProt P35557).
T1 sequence (P35557 1-465): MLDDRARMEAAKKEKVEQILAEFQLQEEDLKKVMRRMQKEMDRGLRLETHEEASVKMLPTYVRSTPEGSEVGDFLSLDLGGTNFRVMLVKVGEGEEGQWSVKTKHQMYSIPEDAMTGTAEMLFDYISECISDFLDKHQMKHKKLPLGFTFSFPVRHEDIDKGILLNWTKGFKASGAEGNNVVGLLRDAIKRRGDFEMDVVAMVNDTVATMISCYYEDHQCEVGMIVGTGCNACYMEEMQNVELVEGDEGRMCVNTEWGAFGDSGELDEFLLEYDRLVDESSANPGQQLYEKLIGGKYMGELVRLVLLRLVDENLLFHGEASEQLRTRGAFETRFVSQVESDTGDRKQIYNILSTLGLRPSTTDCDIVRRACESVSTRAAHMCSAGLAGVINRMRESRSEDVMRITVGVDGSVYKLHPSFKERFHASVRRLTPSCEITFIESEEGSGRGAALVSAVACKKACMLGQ
The assay is described as follows: Glucokinase activity assay (coupled enzymatic GK/G6PD assay, NADH absorbance at 340 nm). To be noted: for EC50: EC50 of % change in S0.5 of glucokinase for glucose, sigmoidal fit, read-out: EC50 (with respect to % ΔS0.5); for % Emax (with respect to % ΔS0.5) / Emax: Emax of % change in S0.5, vehicle S0.5 = 0%, 0 mM glucose = 100%; for Emax: read-out: % Emax (with respect to % ΔS0.5). It is filed as biochemical. An excerpt:
The glucokinase (GK) assay is a coupled enzymatic assay. GK catalyzes the first step of glycolysis, the conversion of glucose to glucose-6-phosphate (G6P) in the presence of ATP. G6P in turn is converted by glucose-6-phosphate dehydrogenase (G6PD) to 6-phosphogluconate, a process that requires NAD, resulting in NADH formation. Since the GK-catalyzed step is the rate-limiting step of this coupled enzymatic process, the rate of accumulation of 6-phosphogluconate and NADH is directly proportional to the rate of glucose phosphorylation by GK. The rate of the GK-catalyzed reaction can therefore be measured by monitoring the increase in NADH absorbance at 340 nm.
The assay is carried out according to the protocol outlined in Hariharan et al (1997), Diabetes 46: 11-16. Briefly, the test compounds are incubated in a reaction mix containing 25 mM HEPES (pH 7.2), 10 mM MgCl2, 100 mM KCl, 5 mM ATP, 2 mM DTT, 0.5 mM NAD, 1 U/ml Leuconostoc mesenteroides G6PD, 0.3 U/ml of purified human recombinant GK, and different concentrations of glucose. Enzymatic activity is calculated from the initial reaction velocity, measured from the change in NADH absorbance as a function of time.
Compounds described in formula (I), in concentration ranges from 1.0 nM to […] are tested in the purified human recombinant glucokinase assay described above.
A compound is considered to be a glucokinase activator if it, in its testable range of concentrations, yields a higher rate of glucose phosphorylation than in its absence at a particular glucose concentration, for example at 5 mM glucose.
Compounds of general formula (I) are tested in the in vitro GK enzymatic assay to monitor dose-dependent effect on glucokinase activation (in kinetic mode), as described above, at various glucose concentrations. The S0.5 of glucokinase for glucose at different concentration of each compound of interest is calculated from the following modified version of the Michaelis-Menten equation, V=Vmax[S]^n/(S0.5^n+[S]^n), where [S] is the glucose concentration and n is the Hill coefficient (taken as 1.7 to account for the sigmoidal kinetics of glucokinase with respect to glucose). The S0.5 is plotted against the log of the compound concentration. The change in the S0.5 of glucokinase (ΔS0.5) for glucose is calculated by subtracting the S0.5 at each concentration of the compound from the S0.5 in the vehicle control. The ΔS0.5 is then normalized to a percent scale, where the S0.5 in the vehicle control is set to 0% and 0 mM glucose is set to 100%. The % ΔS0.5 is then plotted against the log of the compound concentration. The EC50 and Emax of % change in S0.5 is obtained from the sigmoidal fit of the data. Detailed protocol has been described in our copending application no. WO 2008/104994 which is incorporated herein by reference. Characterization data of some representative glucokinase activators of the present disclosure, which are illustrative but not limiting, are given in table 1 below.

A further assay concerns primary rat hepatocytes. The assay can be described thus: Measurement of glycogen synthesis in primary rat hepatocytes. It is filed as cell-based. To be noted: 10 mM glucose, fold increase over DMSO control; for Fold increase in glycogen synthesis at 10 μM compound: 3 hours; for fold induction at 10 µM: Rattus norvegicus, Hepatocyte, 3 h, 10 μM compound. The protocol: Primary hepatocytes are collected from male Wistar rats, and tested for viability by trypan blue exclusion. Primary hepatocytes cultures with viability greater than 95% are selected for the glycogen synthesis assay. The cells are seeded in a 48-well plate at a density of 200,000 cells/well in 250 μl Minimal Essential Medium (MEM) containing 10% foetal calf serum (FCS) and 1.7 μM insulin, and incubated for 4 hours at 37° C. to allow attachment. The medium is replaced with fresh MEM containing 10% FCS, 1.7 μM insulin and 10 nM dexamethasone, and the cells are incubated for 16 hours at 37° C. The medium is then replaced with fresh MEM (serum-free) containing 2 μCi/ml of D-[U^14C]-Glucose along with 10 μM of the compound in a final DMSO concentration of 0.1%. The final glucose concentration is brought to 10 mM by the addition of D-Glucose (MEM already contains 5 mM glucose). The cells are incubated for 3 hours at 37° C. The cells are washed twice with 150 mM NaCl, lysed with 0.1 N NaOH, and the lysate precipitated with 8% w/v trichloroacetic acid (TCA) and 1 mg/well unlabeled glycogen as carrier. Cell debris is pelleted by centrifugation, the supernatant is removed, and the glycogen is precipitated with 63% ethanol. After another round of centrifugation, the supernatant is removed, and the pellet containing the precipitated glycogen is dried overnight. De novo synthesized glycogen is estimated in a scintillation counter (MicroBeta Trilux, Perkin Elmer), and expressed as fold increase over DMSO control.
The protocol for the glycogen assay is based on the method described in “Biochem J. 1990 Feb. 15; 266(1): 91-102” with a few minor modifications. The protocol for isolation of primary rat hepatocytes is based on the method described in “Methods in Enzymology, Vol. III. pp 34-50. Ed. by S. P. Colowick and N. O. Kaplan. New York, Academic Press, 1957” with a few minor modifications.
Compounds described in formula (I), in concentration ranges from 1.0 nM to 500 μM, are tested in glycogen synthesis assay described above.

Molecules are shown by their SMILES.

The values below come from patent US8501955B2, “Acetamide derivatives as glucokinase activators, their process and medicinal application” (Advinus Therapeutics Private Limited, priority 2007, dated 2013).

The EC50 is the concentration giving half of the maximal effect. What is called fold induction is the signal under treatment as a multiple of the control signal. The low end stands for little rise in signal, the high end for a large rise in signal. Usually Emax stands for the size of the effect at its maximum, as opposed to the concentration needed.

Take `O=C(O)Cc1nc(NC(=O)C(Oc2ccc(F)cc2F)c2ccc(S(=O)(=O)C3CC3)cc2)sc1Cl` (single isomer, unassigned; (+)) [Example F1, (+)-{5-Chloro-2-[2-(4-cyclopropanesulfonyl-phenyl)-2-(2,4-difluorophenoxy)acetyl-amino]thiazol-4-yl}-acetic acid]: in assay [1], the EC50 turned out to be 1270 nM and the “% Emax (with respect to % ΔS0.5)” value turned out to be 90%. Besides, in the assay on primary rat hepatocytes, the “Fold increase in glycogen synthesis at 10 μM compound” value came out at 4.5 fold. For `O=C(O)Cc1nc(NC(=O)C(Oc2ccc(F)cc2F)c2ccc(S(=O)(=O)C3CCCC3)cc2)sc1Cl` (single isomer, unassigned; (+)) [Example F2, (+)-{5-Chloro-2-[2-(4-cyclopentanesulfonyl-phenyl)-2-(2,4-difluorophenoxy)acety-lamino]thiazol-4-yl}acetic acid], in that order: 670 nM, 95% and 7.2 fold. For `O=C(O)Cc1csc(NC(=O)C(Oc2ccc(F)cc2F)c2ccc(S(=O)(=O)C3CC3)cc2)n1` (single isomer, unassigned; (+)) [Example F3, (+)-{2-[2-(4-Cyclopropanesulfonylphenyl)-2-(2,4-difluorophenoxy)acetylamino]thiazol-4-yl}acetic acid], in that order: 2470 nM, 90% and 7.0 fold.

`O=C(O)c1ccc(Oc2cnc(NC(=O)C(OC3CCOCC3)c3ccc(S(=O)(=O)C4CC4)cc3)s2)cc1` (single isomer, unassigned; (+)) [Example H7A, (+) 4-{2-[2-(4-Cyclopropanesulfonyl-phenyl)-2-(tetrahydro-pyran-4-yloxy)-acetylamino]-thiazol-5-yloxy}-benzoic acid] showed a fold induction at 10 µM with primary rat hepatocytes of 7.7. The same measure, in the same setting: then `COc1ccc2nc(NC(=O)C(OC3CCOCC3)c3ccc(S(=O)(=O)C4CC4)cc3)sc2n1` (single isomer, unassigned; (+)) [Example H12A, (+)2-(4-Cyclopropanesulfonyl-phenyl)-N-(5-methoxy-thiazolo[5,4-b]pyridin-2-yl)-2-(tetrahydro-pyran-4-yloxy)-Acetamide], with 5; and `Cc1csc(NC(=O)C(Oc2ccc(F)cc2F)c2ccc(S(=O)(=O)C3CC3)cc2)n1` (centres unmarked) [Example A15, 2-(4-Cyclopropanesulfonylphenyl)-2-(2,4-difluorophenoxy)-N-(4-methyl-thiazol-2-yl)acetamide], with 3.7.

As to `Cc1nc(NC(=O)C(Oc2ccc(F)cc2F)c2ccc(S(=O)(=O)C3CC3)cc2)sc1C(=O)O` (centres unmarked) [Example B12, 2-[2-(4-Cyclopropanesulfonylphenyl)-2-(2,4-difluorophenoxy)acetylamino]-4-methylthiazole-5-carboxylic acid], the EC50 in assay [1] is above 10000 nM. With `O=C(O)Cc1csc(NC(=O)C(Oc2ccc(F)cc2F)c2ccc(S(=O)(=O)C3CCCC3)cc2)n1` (centres unmarked) [Example B14, {2-[2-(4-Cyclopentanesulfonylphenyl)-2-(2,4-difluorophenoxy)-acetylamino]-thiazol-4-yl}acetic acid], in assay [1], the EC50 came out at 1600 nM and the maximal response (Emax) was found to be 90%. With `O=C(O)Cc1nc(NC(=O)C(Oc2ccc(F)cc2F)c2ccc(S(=O)(=O)C3CCCCC3)cc2)sc1Cl` (centres unmarked) [Example B15, {5-Chloro-2-[2-(4-cyclohexanesulfonylphenyl)-2-(2,4-difluorophenoxy)acetylamino]-thiazol-4-yl}acetic acid], in assay [1], the EC50 came out at 670 nM and the Emax was 95%. For the compound `CCOc1sc(NC(=O)C(Oc2ccc(F)cc2F)c2ccc(S(=O)(=O)C3CC3)cc2)nc1CC(=O)O` (centres unmarked) [Example B22, {2-[2-(4-Cyclopropanesulfonylphenyl)-2-(2,4-difluorophenoxy)acetylamino]-5-ethoxy-thiazol-4-yl}acetic acid], the half-maximal effective concentration (EC50) in assay [1] is above 10000 nM. As to `O=C(O)c1csc(NC(=O)C(Oc2ccc(Cl)cc2F)c2ccc(S(=O)(=O)C3CC3)cc2)n1` (centres unmarked) [Example B26, 2-[2-(4-Chloro-2-fluorophenoxy)-2-(4-cyclopropanesulfonylphenyl)acetylamino]thiazole-4-carboxylic acid], the concentration for a half-maximal effect (EC50) in assay [1] is above 10000 nM. In the case of `O=C(O)c1ccc(Oc2cnc(NC(=O)C(Oc3ccc(F)cc3F)c3ccc(S(=O)(=O)N4CCCCC4)cc3)s2)cc1` (centres unmarked) [Example B50, 4-(2-{2-(2,4-Difluoro-phenoxy)-2-[4-(piperidine-1-sulfonyl)-phenyl]-acetylamino}-thiazol-5-yloxy)-benzoic acid], in assay [1], the concentration for a half-maximal effect (EC50) was 280 nM and the Emax came out at 90%. For the compound `O=C(O)c1ccc(Oc2cnc(NC(=O)C(OC3CCOCC3)c3ccc(S(=O)(=O)C4CC4)cc3)s2)c(F)c1` (centres unmarked) [Example B94, 4-{2-[2-(4-Cyclopropanesulfonyl-phenyl)-2-(tetrahydro-pyran-4-yloxy)-acetylamino]-thiazol-5-yloxy}-3-fluoro-benzoic acid], the fold induction at 10 µM with primary rat hepatocytes is 8.7. On to `O=C(O)Cc1ccc(Oc2cnc(NC(=O)C(OC3CCOCC3)c3ccc(S(=O)(=O)C4CC4)cc3)s2)cc1` (centres unmarked) [Example B100, (4-{2-[2-(4-Cyclopropanesulfonyl-phenyl)-2-(tetrahydro-pyran-4-yloxy)-acetylamino]-thiazol-5-yloxy}-phenyl)-acetic acid], for which, in assay [1], the EC50 came to 220 nM and the Emax turned out to be 91%. `NC(=O)c1cccc(Oc2cnc(NC(=O)C(Oc3ccc(F)cc3F)c3ccc(S(=O)(=O)C4CC4)cc3)s2)c1` (centres unmarked) [Example G3, 3-{2-[2-(4-Cyclopropanesulfonyl-phenyl)-2-(2,4-difluoro-phenoxy)-acetylamino]-thiazol-5-yloxy}-benzamide]: in assay [1], the 50% effective concentration (EC50) turned out to be 200 nM and the maximum response (Emax) is 90%.
